Assay results: PubChem BioAssay (NCI)
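96-well plates; 48 h exposure; 5 concentrations. Endpoints by linear interpolation between flanking doses. Not reached: highest tested concentration assigned. TGI is the concentration that stops growth completely.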

What follows are compounds tested on MDA-MB-435 (assay: NCI-60 cell line screen, 48 h).

`CC(C)(C)OC(=O)NCC(O)CNC(=O)OC(C)(C)C` and `CC(C)(C)C(=O)OCC1CCC[N+]2(C)CCCCC12` (stereo not given) cannot be ordered by TGI: > 100 µM for the first, > 100 µM for the second.

Compared with `O=[N+]([O-])c1cc2oc(COc3ccccc3)nc2cc1Cl`, `NS(=O)(=O)c1nn2c(Br)c(-c3ccccc3)nc2s1` is 3.2-fold lower in TGI: 52.4 µM for the first, 16.3 µM for the second.

First: Cc1ccc(S(=O)(=O)N/N=C/C(=C/c2ccc(Cl)cc2)CC(/C=N/NS(=O)(=O)c2ccc(C)cc2)=C\c2ccc(Cl)cc2)cc1
Second: CN(C)Cc1cc(C(=O)/C=C/c2ccc(Cl)cc2)cc(CN(C)C)c1O
The TGI of the first is 1.9-fold lower: 14.2 µM for the first, 26.5 µM for the second.

First: CC(C)(C)c1cc(C(P(=O)(c2ccccc2)c2ccccc2)P(=O)(c2ccccc2)c2ccccc2)cc(C(C)(C)C)c1O
Second: CCN(CC)c1c(N(CC)CC)c(=O)c1=O
The TGI of the first is 14-fold lower: 4.39 µM for the first, 60.9 µM for the second.

In the case of `O=[N+]([O-])c1ccc(Cl)c(C=NC23CC4CC(CC(C4)C2)C3)c1`, the TGI is reported as > 10 µM.

What follows are compounds tested on NCI/ADR-RES ovarian (assay: NCI-60 cell line screen, 48 h).

Compared with `CCc1nc(N)nc(N)c1-c1ccc2nn(-c3ccccc3)[n+]([O-])c2c1`, `Nc1nc(N)c2[nH]c(CNc3ccc(C(=O)O)cc3)nc2n1` is higher in TGI: 38.8 µM for the first, > 100 µM for the second.

`O=C(O)/C=N\Nc1nc2ccccc2[nH]1` and `CNn1c(-c2ccccc2)n[nH]c1=O` cannot be ordered by TGI: > 100 µM for the first, > 100 µM for the second.

Compared with `CC(=O)OCCn1cnc2nc(Nc3ccccc3)nc(Cl)c21`, `NS(=O)(=O)c1nn2c(Br)c(-c3ccccc3)nc2s1` is lower in TGI: > 100 µM for the first, 12.6 µM for the second.

`CCC1(CC)SCc2nc3ccccc3n21` and `O=[N+]([O-])c1cc2oc(COc3ccccc3)nc2cc1Cl` are within 1.5-fold of each other in TGI: 86 µM for the first, 61.2 µM for the second.

`C[C@]12CC[C@H](O)CC1=CC[C@@H]1[C@@H]2CC[C@]2(C)C(=O)[C@@H](N3CCOCC3)C[C@@H]12` and `O=[N+]([O-])c1ccc(Cl)c(C=NC23CC4CC(CC(C4)C2)C3)c1` cannot be ordered by TGI: > 100 µM for the first, > 10 µM for the second.

First: COc1ccc(CC2c3cc(Oc4cc(CC5c6cc(OC)c(OC)cc6CCN5C)ccc4O)c(OC)cc3CCN2C)cc1 (stereo not given)
Second: COc1ccc(C(C)NNC(=O)c2ccncc2)c(OC)c1 (stereo not given)
The TGI of the first is lower: 14.4 µM for the first, > 100 µM for the second.

`CC(C)(C)OC(=O)NCC(O)CNC(=O)OC(C)(C)C` and `CC(C)(C)C(=O)OCC1CCC[N+]2(C)CCCCC12` (stereo not given) cannot be ordered by TGI: > 100 µM for the first, > 100 µM for the second.

First: Cc1ccc(S(=O)(=O)N/N=C/C(=C/c2ccc(Cl)cc2)CC(/C=N/NS(=O)(=O)c2ccc(C)cc2)=C\c2ccc(Cl)cc2)cc1
Second: CN(C)Cc1cc(C(=O)/C=C/c2ccc(Cl)cc2)cc(CN(C)C)c1O
The TGI of the first is 1.7-fold higher: 94.3 µM for the first, 54.2 µM for the second.

First: CC(C)(C)c1cc(C(P(=O)(c2ccccc2)c2ccccc2)P(=O)(c2ccccc2)c2ccccc2)cc(C(C)(C)C)c1O
Second: CCN(CC)c1c(N(CC)CC)c(=O)c1=O
The TGI of the first is 9.9-fold lower: 6.16 µM for the first, 61.2 µM for the second.

Each compound was assayed on K-562 leukemia (assay: NCI-60 cell line screen, 48 h).

First: CCc1nc(N)nc(N)c1-c1ccc2nn(-c3ccccc3)[n+]([O-])c2c1
Second: Nc1nc(N)c2[nH]c(CNc3ccc(C(=O)O)cc3)nc2n1
The TGI of the first is lower: 22.9 µM for the first, > 100 µM for the second.

`O=C(O)/C=N\Nc1nc2ccccc2[nH]1` and `CNn1c(-c2ccccc2)n[nH]c1=O` cannot be ordered by TGI: > 100 µM for the first, > 100 µM for the second.

First: CC(=O)OCCn1cnc2nc(Nc3ccccc3)nc(Cl)c21
Second: NS(=O)(=O)c1nn2c(Br)c(-c3ccccc3)nc2s1
The TGI of the first is higher: > 100 µM for the first, 21.2 µM for the second.

Compared with `CCC1(CC)SCc2nc3ccccc3n21`, `O=[N+]([O-])c1cc2oc(COc3ccccc3)nc2cc1Cl` is higher in TGI: 74.5 µM for the first, > 100 µM for the second.

`C[C@]12CC[C@H](O)CC1=CC[C@@H]1[C@@H]2CC[C@]2(C)C(=O)[C@@H](N3CCOCC3)C[C@@H]12` and `O=[N+]([O-])c1ccc(Cl)c(C=NC23CC4CC(CC(C4)C2)C3)c1` cannot be ordered by TGI: > 100 µM for the first, > 10 µM for the second.

First: COc1ccc(CC2c3cc(Oc4cc(CC5c6cc(OC)c(OC)cc6CCN5C)ccc4O)c(OC)cc3CCN2C)cc1 (stereo not given)
Second: COc1ccc(C(C)NNC(=O)c2ccncc2)c(OC)c1 (stereo not given)
The TGI of the first is lower: 5.28 µM for the first, > 100 µM for the second.

`CC(C)(C)OC(=O)NCC(O)CNC(=O)OC(C)(C)C` and `CC(C)(C)C(=O)OCC1CCC[N+]2(C)CCCCC12` (stereo not given) cannot be ordered by TGI: > 100 µM for the first, > 100 µM for the second.

First: Cc1ccc(S(=O)(=O)N/N=C/C(=C/c2ccc(Cl)cc2)CC(/C=N/NS(=O)(=O)c2ccc(C)cc2)=C\c2ccc(Cl)cc2)cc1
Second: CN(C)Cc1cc(C(=O)/C=C/c2ccc(Cl)cc2)cc(CN(C)C)c1O
The TGI of the first is 2.6-fold lower: 8.19 µM for the first, 21.4 µM for the second.

Compared with `CC(C)(C)c1cc(C(P(=O)(c2ccccc2)c2ccccc2)P(=O)(c2ccccc2)c2ccccc2)cc(C(C)(C)C)c1O`, `CCN(CC)c1c(N(CC)CC)c(=O)c1=O` is higher in TGI: 9.93 µM for the first, > 100 µM for the second.
